Measured values published in a melting point compilation (Tetko et al.; mined from patent text by program, amines drawn as free bases though some values may be those of a salt).

Structure (SMILES)	melting point [°C]
O=C(Cc1ccc(I)cc1)NC[C@H]1CCCN1CCF	96
CC(C)(C)OC(=O)N1CCn2c(c(C(N)=S)c(Cl)c2-c2cccnc2)C1	220 to 221
O=C1C(c2ccccc2)=C(c2ccccc2Cl)C(=O)N1c1ccc(Cl)cc1	46
S=C(NN=Cc1cccc(-c2ccccc2Br)n1)NN1CCCC1	157 to 159
OCC1NCCc2occc21 (centres undefined)	66 to 69
Cc1cc(C)cc(C(=O)N2CCN(C(=O)CNC3CCN(C(=O)c4ccccc4)CC3)C(c3ccc(Cl)c(Cl)c3)C2)c1 (racemic)	94 to 96
Cc1nc2ccc(F)cc2n1C1CC2CC(=O)CC2C1 (centres undefined)	199 to 200
O=C(O)c1cnn2c(C(F)F)cc(-c3ccc(C(F)(F)F)c(OCC(F)(F)F)c3)nc12	261
Cc1nnc(-c2ccc3scc(-c4ccc(S(C)(=O)=O)cc4)c3c2)o1	231 to 232
CCOC(=O)C1=C(O)C(C)(CC)CNC1=O (centres undefined)	196 to 197
N#CC(CNC(=O)Nc1cncnc1)C(=O)O (centres undefined)	183
CN1CCC(c2cccc(F)c2)(C(C)(C)O)CC1	158 to 159
COc1ccc2[nH]c(SCc3ncc(C)c(OC)c3C)nc2c1	120 to 121
CC(C)(CN)c1ccc2nc(-c3ccncc3)[nH]c2c1	199 to 202
COc1ccc(Sc2ccncc2)c(N)c1	93 to 94
CC(=O)Nc1ccc(NC(=O)N(C[C@H]2CC[C@H](CN(C(=O)Nc3ccc(NC(C)=O)cc3)C3CCCCC3)CC2)C2CCCCC2)cc1	228 to 231
NS(=O)(=O)c1ccc(C2=C(c3ccc(Cl)cc3)CCC2)cc1	177 to 178
CCn1nc(C)sc1=Nc1ccc(N2CCN(c3ccc(OC)cc3)CC2)cc1	175
O=C1CCC(c2ccc(CO)cc2)CC1	58 to 60
CN(CCOc1ccc(C=C2SC(=O)NC2=O)cc1)c1ccccn1	177 to 179
CC1Cc2cc3c(cc2C(c2ccc([N+](=O)[O-])cc2)=NN1C(=O)CCCN)OCO3 (centres undefined)	110 to 112
CCNc1ccc2[nH]cc(C3CCN(C)CC3)c2n1	132 to 134

Structure (SMILES)	melting point [°C]
Cc1ccc2c(O)cc(=O)oc2c1	179 to 182
CCCc1nn(C)c2c(=O)[nH]c(-c3cc(-c4nccn4C)ccc3OCC)nc12	199 to 202
COc1c(N)cc(C(=O)O)cc1S(N)(=O)=O	210
COc1ccc(CNc2nc(N)nc3c2ncn3C2CC(F)C(CO)O2)cc1 (centres undefined)	194 to 195
CCOC(=O)c1cn(C(C)C(OC)OC)c2c(F)c(F)c(F)cc2c1=O (centres undefined)	125 to 126
Oc1ccc2c(-c3cccc4c(O)cccc34)noc2c1	258 to 259
Cc1noc(-c2ccc([C@H]3CN(C(=O)OC(C)(C)C)CCO3)cc2)n1	116
CCCCCCCCCCC(O)C(O)CN (centres undefined)	98 to 100
COC(=O)COc1ccc(-c2coc3cc(OCC(=O)OC)ccc3c2=O)cc1	163 to 166
CC1(O)CCC(CN2CCC(=C3c4ccc(F)cc4Sc4ccc(C(F)(F)F)cc43)CC2)CC1 (centres undefined)	80 to 90
Cc1cc(C(O)(C(F)(F)F)C(F)(F)F)cc(C)c1NCCC#N	111 to 114
C#CCCc1c(C)c(OC)c(C)c(C)c1OC	54
C[C@@H](n1ncn(-c2ccc(-n3nccn3)cc2)c1=O)[C@](O)(Cn1cncn1)c1ccc(F)cc1F	213 to 215
FC(F)(F)COc1nc(NCc2ccc(C(F)(F)F)cc2)nc(Nc2ccc3cc[nH]c3c2)n1	119 to 121
Cc1cccc(C)c1NC(=O)CN1CCN(C=O)CC1	139 to 140
O=C(Nc1c(Cl)cncc1Cl)c1ccc(OCC2CC2)c2oc3ccccc3c12	242
COC(=O)C(CS)NC(=O)CNC(=O)CS (centres undefined)	67 to 69
N#CC1CN1C(=O)NC(=O)C1CCCCC1 (centres undefined)	142 to 144
O=C(O)c1ccc2c(c1)CCc1ccc(O)cc1C2=O	256 to 257
O=C(Nc1cccnc1)c1cc2ccncc2[nH]1	270 to 290
CCCCC/C=C\C/C=C\CCCCCCC[C@@H](C[C@@H]1OC(=O)[C@H]1CC)OC(=O)[C@H](CC(C)C)NC=O	48 to 53
O=c1ccc2c(-c3cccs3)nccc2[nH]1	238 to 240

Structure (SMILES)	melting point [°C]
CCc1cc2c(cc1Cl)C=C(C(=O)O)C(C(F)(F)F)O2 (centres undefined)	171 to 172
CCCCCCc1cc2c(s1)-n1c(C)nnc1C(C)N=C2c1ccccc1C (centres undefined)	83 to 85
COc1cc(C2C3=C(COC3=O)Nc3ccc4ncsc4c32)cc(OC)c1OC (centres undefined)	309 to 310
COC(=O)C1=Cc2cc(Br)ccc2S(=O)(=O)CC1	162 to 164
CC1(C)OCc2cccc(Cc3c[nH]cn3)c2O1	160 to 170
CCC(=O)c1cc2c(=O)n(NS(C)(=O)=O)c(=O)[nH]c2cc1C(F)(F)F	234 to 236
COC(=O)c1ncn2c1CN=C(c1ccccc1F)c1cc(Cl)ccc1-2	179 to 181
CN(C)c1ccc2c(c1)C(=O)N(c1ccc3ccsc3c1)C2	195 to 197
CCOc1ccc(Nc2n[nH]c(N)c2C#N)cc1	166 to 167
O=C(Cl)CCCC(=O)Cl	60.6 to 61.4
Cc1ccccc1C(=O)NC(=O)NC1CN2CCC1CC2 (centres undefined)	216 to 217
CNC(=S)NC1=NN(c2ccc(Cl)cc2)CC1	237
CN(Cc1coc(C=Cc2ccc(C(F)(F)F)cc2)n1)c1ccc(OCCCn2ccnn2)cc1	137 to 138
Nc1ccc(Oc2ccccc2OCc2ccccc2)cc1	111 to 112
O=[N+]([O-])c1cnn2cnc3ccccc3c12	177 to 178
CCOC(=O)c1conc1-c1ccc(F)c(Cl)c1	108 to 109
Cn1c2ccc(Cl)cc2c(=O)n2nc(C#N)cc12	350
CC1=CC=CC(O)(C(=N)N)C1C (centres undefined)	110 to 111
COc1ccc(C2=C(c3ccc(S(N)(=O)=O)cc3)CCC2)cc1F	170 to 171
O=C1C=C(NC(=O)C(=O)c2cn(Cc3ccc(F)cc3)c3ccccc23)CO1	260 to 262

Now from value to compound:

melting point [°C]	Structure (SMILES)
60 to 65	CCCC1CCCCc2c1oc(=O)c(C(c1ccccc1)C1CC1)c2O (centres undefined)
119 to 124	COCCOc1cnn(-c2nc3ccccc3c(=O)[nH]2)c1
157 to 167	CC(Oc1ccccc1)c1nnc(N)s1 (centres undefined)
81 to 86	COc1c(OCc2ccc(-c3ccccc3S(=O)(=O)Nc3noc(C)c3C)c(COCCF)c2)cc(C)nc1C
96	CCCCCCCCCCCCCCCc1cccc(OCC(=O)O)c1
195	COc1ccc(CSc2ncn(Cc3cc4c(cc3Cl)OCO4)c2C(=O)O)cc1
103 to 104	CCOC(=O)c1cn(-c2ccc(F)cc2)nc1C
168 to 170	CN(C)c1ccc2cc(C(/C=C\NCCO)=C(C#N)C#N)ccc2c1
64.9 to 66.2	c1ccc(CSc2ncnc3ccccc23)nc1
114 to 116	Cc1sc(N)c(C(=O)c2ccc(Cl)cc2)c1CN(C)Cc1ccccc1
181 to 183	N#Cc1c(O)nsc1S(=O)(=O)Cc1ccccc1
154	CC(C)N(C(N)=O)C(Oc1ccccc1)C(C)(O)Cl (centres undefined)
105	CC(C)(C)OC(=O)C(C(=O)O)c1cccc(N)c1 (centres undefined)
146 to 148	CC(C)c1nn(-c2ccc(C(F)(F)F)cn2)cc1CCCOc1c(CC(=O)O)cnn1C
136 to 138	CCc1cccc(CC)c1-n1cnc(N)nc1=O
179 to 181	CCN1C(=O)C(C)(C)c2ccc(C(=O)Nc3ccc(F)cc3)cc21
178 to 179	O=C(c1ccccc1Cl)c1cc(Cl)ccc1C(=O)C(Br)CN1C(=O)c2ccccc2C1=O (centres undefined)
125 to 128	CCC1(C)CC(NC(=O)c2cccc([N+](=O)[O-])c2O)CC(C)(C)C1 (centres undefined)
106 to 108	COC(=O)CCC(=O)c1ccc2oc3ccccc3c2c1
178	CCCCNC(=O)NCCc1nc(-c2ccc(-c3ccccc3)cc2)c[nH]1

melting point [°C]	Structure (SMILES)
151 to 153	O=C(O)c1ccccc1SCCCOc1ccc(CCc2ccncc2)cc1
58 to 60	O=C(Oc1ccccc1)N1CCC(Sc2ccccc2F)CC1
114 to 116	CCOC(=O)c1ccccc1CN1C(=O)C(CCO)Oc2ccccc21 (centres undefined)
232	O=C1CCC(c2ccccc2)(c2ccccc2)[C@@H]2CN(C(=O)Cc3ccccc3O)C[C@H]12 (racemic)
243 to 244	CCCNc1ccc2nc(NC(=O)c3ccc(C(C)(C)C)cc3)cn2n1
74 to 76	CCOC(=O)c1c(C(C)C)c(-c2ccc(F)cc2)cn1CC
219 to 220	CCCCc1ncc(C=C2C(=O)Nc3ccccc32)n1Cc1ccc(C(=O)OC)cc1Cl
84 to 86	CCOC(=O)c1c(CC)ncnc1NCCc1ccc(CCOS(C)(=O)=O)cc1
142	CC(C)(C)OC(=O)N[C@@H](Cc1ccccc1)C(=O)NC1CCC(Nc2cccc3c2C(=O)c2ccccc2C3=O)CC1 (some centres undefined)
148 to 150	O=C(O)c1nc(CCCc2ccccc2)c[nH]1
121 to 122	CCOC(=N)c1cccc(Cc2ccccc2)c1
73 to 74	CCOC(=O)CCc1ccc(OCc2ccc(Cn3nc(C(C)(C)C)cc3C(C)(C)C)cc2)cc1F
277 to 279	NC1=NC(=O)N(c2ccccc2)C1
152 to 154	O=C(O)COc1ccc(NC(=O)OCc2ccccc2)cc1
149	CCC(CC)CC(C)(NC(CO)c1ccccc1)C(=O)O (centres undefined)
140	COc1ccc(C(NC(C)=O)C(=O)c2ccc(Cl)cc2)cc1 (centres undefined)
74 to 76	O=c1oc2ccccc2c(=O)n1OS(=O)(=O)C(F)(F)F
179	O=C(c1ccc(O)cc1)c1c(-c2ccccc2)cc2ccccn12
115 to 116	CN(C)c1ccc2c(c1)C(=O)N(c1ccc(CCCC(=O)OC(C)(C)C)cc1)C2
238 to 240	CCn1c(=O)c2ccc(C(=O)O)cc2n(Cc2ccc(Cl)cc2Cl)c1=O
